Results: the supplement of paper PMC4862054

How the values were obtained:
Settings in all cases: incubation time: 72 h
BT-549 [1] = test: normalised viability (% of control), CellTiter-Blue; higher = more viable cells (about 100 = DMSO control)
Method in brief: (§1)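 Each value is normalised viability at a single listed concentration of the series. Breast cancer cell lines in 384-well plates were incubated 72 h with compound and read by CellTiter-Blue fluorescence at 560/590 nm, with vehicle set to 100 and a positive kill control to 0 on every plate.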

CAL-120 [2] = test: as above
Method in brief: as §1

CAL-148 [3] = test: as above
Method in brief: as §1

CAL-51 [4] = test: as above
Method in brief: as §1

CAL-85-1 [5] = test: as above
Method in brief: as §1

DU-4475 [6] = test: as above
Method in brief: as §1

HCC1143 [7] = test: as above
Method in brief: as §1

HCC1599 [8] = test: as above
Method in brief: as §1

HCC1937 [9] = test: as above
Method in brief: as §1

BT-474 = test: drug sensitivity score (DSS), CellTiter-Glo (DSS (AUC-based score)); higher = stronger drug effect (viability inhibition or cytotoxicity); extreme values may be limits of the assay
Method in brief: (§2)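 In 384-well plates, compound was laid out at 5 concentrations in 10-fold steps over a 10,000-fold range specific to each compound, and breast cancer cell lines were seeded on top in 20 µl suspension for a 72 h incubation. CellTox Green fluorescence and then CellTiter-Glo luminescence were read, and each plate was normalised to 0.1 % DMSO and a positive kill control. The drug sensitivity score was calculated from the area under the fitted dose-response curve.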

BT-549 [10] = test: as above
Method in brief: as §2

CAL-120 [11] = test: as above
Method in brief: as §2

CAL-148 [12] = test: as above
Method in brief: as §2

CAL-51 [13] = test: as above
Method in brief: as §2

CAL-85-1 [14] = test: as above
Method in brief: as §2

DU-4475 [15] = test: as above
Method in brief: as §2

HCC1143 [16] = test: as above
Method in brief: as §2

HCC1599 [17] = test: as above
Method in brief: as §2

HCC1937 [18] = test: as above
Method in brief: as §2

HDQ-P1 = test: as above
Method in brief: as §2

Hs578T = test: as above
Method in brief: as §2

MCF-10A = test: as above
Method in brief: as §2

MDA-MB-436 = test: as above
Method in brief: as §2

MDA-MB-453 = test: as above
Method in brief: as §2

MDA-MB-468 = test: as above
Method in brief: as §2

MFM-223 = test: as above
Method in brief: as §2

SK-BR-3 = test: as above
Method in brief: as §2

## C#Cc1cccc(Nc2ncnc3cc(OC)c(OCCCCCCC(=O)NO)cc23)c1 [CUDC-101]
BT-549 [1]; 100 nM
  normalised viability: 97.6%
CAL-120 [2]; 100 nM
  normalised viability: 67.1%
CAL-148 [3]; 10 nM
  normalised viability: 83.6%
CAL-51 [4]; 10 nM
  normalised viability: 113%
CAL-85-1 [5]; 10 nM
  normalised viability: 93%
DU-4475 [6]; 10 nM
  normalised viability: 101%
HCC1143 [7]; 100 nM
  normalised viability: 79.7%
HCC1599 [8]; 100 nM
  normalised viability: 83.4%
HCC1937 [9]; 100 nM
  normalised viability: 88.8%
BT-474
  drug sensitivity score: 7.85
BT-549 [10]
  drug sensitivity score: 9
CAL-120 [11]
  drug sensitivity score: 5.5
CAL-148 [12]
  drug sensitivity score: 10.1
CAL-51 [13]
  drug sensitivity score: 12.7
CAL-85-1 [14]
  drug sensitivity score: 19.7
DU-4475 [15]
  drug sensitivity score: 9.19
HCC1143 [16]
  drug sensitivity score: 11.1
HCC1599 [17]
  drug sensitivity score: 11.4
HCC1937 [18]
  drug sensitivity score: 8.33
HDQ-P1
  drug sensitivity score: 7.15
Hs578T
  drug sensitivity score: 8.01
MCF-10A
  drug sensitivity score: 17.5
MDA-MB-436
  drug sensitivity score: 6.33
MDA-MB-453
  drug sensitivity score: 21.1
MDA-MB-468
  drug sensitivity score: 18.1
MFM-223
  drug sensitivity score: 15
SK-BR-3
  drug sensitivity score: 14.6

## COC1=C2C[C@@H](C)C[C@H](OC)[C@H](O)[C@@H](C)/C=C(\C)[C@H](OC(N)=O)[C@@H](OC)/C=C\C=C(/C)C(=O)NC(=CC1=O)C2=O [Geldanamycin]
BT-549 [1]; 100 nM
  normalised viability: 39.3%
CAL-120 [2]; 100 nM
  normalised viability: 25.1%
CAL-148 [3]; 10 nM
  normalised viability: 104%
CAL-51 [4]; 10 nM
  normalised viability: 104%
CAL-85-1 [5]; 10 nM
  normalised viability: 105%
DU-4475 [6]; 10 nM
  normalised viability: 119%
HCC1143 [7]; 100 nM
  normalised viability: 44.3%
HCC1599 [8]; 100 nM
  normalised viability: 83.9%
HCC1937 [9]; 100 nM
  normalised viability: 31.3%
BT-474
  drug sensitivity score: 4.34
BT-549 [10]
  drug sensitivity score: 5.68
CAL-120 [11]
  drug sensitivity score: 2.21
CAL-148 [12]
  drug sensitivity score: 1.87
CAL-51 [13]
  drug sensitivity score: 5.12
CAL-85-1 [14]
  drug sensitivity score: 6
DU-4475 [15]
  drug sensitivity score: 6.88
HCC1143 [16]
  drug sensitivity score: 2.36
HCC1599 [17]
  drug sensitivity score: 1.53
HCC1937 [18]
  drug sensitivity score: 5.93
HDQ-P1
  drug sensitivity score: 4
Hs578T
  drug sensitivity score: 3.07
MCF-10A
  drug sensitivity score: 3.98
MDA-MB-436
  drug sensitivity score: 8.77
MDA-MB-453
  drug sensitivity score: 3.9
MDA-MB-468
  drug sensitivity score: 4.27
MFM-223
  drug sensitivity score: 11.3
SK-BR-3
  drug sensitivity score: 5.98

## C[C@@H]1C=C2C(=O)O[C@@H]3CC[C@H](C1)[C@]23O [Galiellalactone]
BT-549 [1]; 500 nM
  normalised viability: 105%
CAL-120 [2]; 500 nM
  normalised viability: 85.6%
CAL-148 [3]; 50 nM
  normalised viability: 104%
CAL-51 [4]; 50 nM
  normalised viability: 106%
CAL-85-1 [5]; 50 nM
  normalised viability: 97.4%
DU-4475 [6]; 50 nM
  normalised viability: 117%
HCC1143 [7]; 500 nM
  normalised viability: 106%
HCC1599 [8]; 500 nM
  normalised viability: 91.1%
HCC1937 [9]; 500 nM
  normalised viability: 90.9%
BT-474
  drug sensitivity score: 0
BT-549 [10]
  drug sensitivity score: 2.89
CAL-120 [11]
  drug sensitivity score: 0
CAL-148 [12]
  drug sensitivity score: 0
CAL-51 [13]
  drug sensitivity score: 4.43
CAL-85-1 [14]
  drug sensitivity score: 1.79
DU-4475 [15]
  drug sensitivity score: 0
HCC1143 [16]
  drug sensitivity score: 0
HCC1599 [17]
  drug sensitivity score: 0
HCC1937 [18]
  drug sensitivity score: 0
HDQ-P1
  drug sensitivity score: 0
Hs578T
  drug sensitivity score: 0
MCF-10A
  drug sensitivity score: 0
MDA-MB-436
  drug sensitivity score: 0
MDA-MB-453
  drug sensitivity score: 0
MDA-MB-468
  drug sensitivity score: 6.03
MFM-223
  drug sensitivity score: 0
SK-BR-3
  drug sensitivity score: 0

## Cn1cnc2c(F)c(Nc3ccc(Br)cc3F)c(C(=O)NOCCO)cc21 [MEK-162]
BT-549 [1]; 10 nM
  normalised viability: 107%
CAL-120 [2]; 10 nM
  normalised viability: 92.2%
CAL-148 [3]; 1 nM
  normalised viability: 91.5%
CAL-51 [4]; 1 nM
  normalised viability: 111%
CAL-85-1 [5]; 1 nM
  normalised viability: 98.1%
DU-4475 [6]; 1 nM
  normalised viability: 97.6%
HCC1143 [7]; 10 nM
  normalised viability: 80.6%
HCC1599 [8]; 10 nM
  normalised viability: 111%
HCC1937 [9]; 10 nM
  normalised viability: 95.1%
BT-474
  drug sensitivity score: 2.42
BT-549 [10]
  drug sensitivity score: 0
CAL-120 [11]
  drug sensitivity score: 0.188
CAL-148 [12]
  drug sensitivity score: 0
CAL-51 [13]
  drug sensitivity score: 0
CAL-85-1 [14]
  drug sensitivity score: 0
DU-4475 [15]
  drug sensitivity score: 12.5
HCC1143 [16]
  drug sensitivity score: 0
HCC1599 [17]
  drug sensitivity score: 0
HCC1937 [18]
  drug sensitivity score: 0
HDQ-P1
  drug sensitivity score: 5.43
Hs578T
  drug sensitivity score: 0
MCF-10A
  drug sensitivity score: 13.3
MDA-MB-436
  drug sensitivity score: 0
MDA-MB-453
  drug sensitivity score: 0
MDA-MB-468
  drug sensitivity score: 0
MFM-223
  drug sensitivity score: 0
SK-BR-3
  drug sensitivity score: 0

## CCCC(CCC)C(=O)O [Valproic acid]
BT-549 [1]; 100 nM
  normalised viability: 92%
CAL-120 [2]; 100 nM
  normalised viability: 110%
CAL-148 [3]; 10 nM
  normalised viability: 106%
CAL-51 [4]; 10 nM
  normalised viability: 97.8%
CAL-85-1 [5]; 10 nM
  normalised viability: 95.7%
DU-4475 [6]; 10 nM
  normalised viability: 93.7%
HCC1143 [7]; 100 nM
  normalised viability: 94.9%
HCC1599 [8]; 100 nM
  normalised viability: 102%
HCC1937 [9]; 100 nM
  normalised viability: 98.8%
BT-474
  drug sensitivity score: 0
BT-549 [10]
  drug sensitivity score: 0
CAL-120 [11]
  drug sensitivity score: 0
CAL-148 [12]
  drug sensitivity score: 0
CAL-51 [13]
  drug sensitivity score: 1.6
CAL-85-1 [14]
  drug sensitivity score: 0
DU-4475 [15]
  drug sensitivity score: 0
HCC1143 [16]
  drug sensitivity score: 0
HCC1599 [17]
  drug sensitivity score: 0
HCC1937 [18]
  drug sensitivity score: 0
HDQ-P1
  drug sensitivity score: 0
Hs578T
  drug sensitivity score: 0
MCF-10A
  drug sensitivity score: 0
MDA-MB-436
  drug sensitivity score: 0
MDA-MB-453
  drug sensitivity score: 1.51
MDA-MB-468
  drug sensitivity score: 0
MFM-223
  drug sensitivity score: 0
SK-BR-3
  drug sensitivity score: 0

## O=c1[nH]cc(F)c(=O)[nH]1 [Fluorouracil]
BT-549 [1]; 100 nM
  normalised viability: 107%
CAL-120 [2]; 100 nM
  normalised viability: 111%
CAL-148 [3]; 10 nM
  normalised viability: 108%
CAL-51 [4]; 10 nM
  normalised viability: 105%
CAL-85-1 [5]; 10 nM
  normalised viability: 94.7%
DU-4475 [6]; 10 nM
  normalised viability: 97%
HCC1143 [7]; 100 nM
  normalised viability: 97.7%
HCC1599 [8]; 100 nM
  normalised viability: 102%
HCC1937 [9]; 100 nM
  normalised viability: 104%
BT-474
  drug sensitivity score: 0
BT-549 [10]
  drug sensitivity score: 0
CAL-120 [11]
  drug sensitivity score: 0
CAL-148 [12]
  drug sensitivity score: 0
CAL-51 [13]
  drug sensitivity score: 0
CAL-85-1 [14]
  drug sensitivity score: 8.63
DU-4475 [15]
  drug sensitivity score: 0
HCC1143 [16]
  drug sensitivity score: 0
HCC1599 [17]
  drug sensitivity score: 0
HCC1937 [18]
  drug sensitivity score: 0
HDQ-P1
  drug sensitivity score: 0
Hs578T
  drug sensitivity score: 0
MCF-10A
  drug sensitivity score: 0
MDA-MB-436
  drug sensitivity score: 3.61
MDA-MB-453
  drug sensitivity score: 0
MDA-MB-468
  drug sensitivity score: 0
MFM-223
  drug sensitivity score: 0
SK-BR-3
  drug sensitivity score: 1.79
